Patent US4772615A, “Various N-substituted 3-piperidine carboxylic acids or N-substituted 3-pyridinecarboxylic acids and derivatives thereof” (Warner-Lambert Company, priority 1987, dated 1988)
Counter-ions that a name gives are not always drawn. Like-named read-outs stand apart in the source and are kept apart here.

Tests used:
[1] = tested on: tonic hindlimb extensor seizures; assay: Threshold Maximal Electroshock (animal model for generalized seizures); assay type: in vivo, Male CF-1 mice; details: Mus musculus, ip, 0.5 h
Protocol: Male CF-1 mice (22-30 grams) are allowed free access to food and water prior to testing. For screening, groups of five mice are given a compound intraperitoneally at doses of 30, 100, and 300 mg/kg and tested at 0.5, 2.0, and 4.0 hr after dosing. Drugs are either dissolved in 0.9% saline or suspended in 0.2% methylcellulose. Animals are shocked with corneal electrodes (see below) and observed for tonic hindlimb extensor seizures. Absence of hindlimb extension is taken as an anticonvulsant effect.
The electroshock apparatus delivers a 60 Hz sine wave with a current amplitude of 14 mA (peak-to-peak) for 0.2 seconds. The current strength of 14 mA used in this procedure produces tonic extensor seizures in approximately 95% of untreated mice, but is only slightly above threshold for tonic extension.

[2] = tested on: uptake of the neurotransmitter gamma-amino-butyric acid (GABA) into slices of rat hippocampal (brain) tissue; assay: Uptake of 3H-GABA into slices (prisms) of rat hippocampus in vitro; assay type: biochemical, Male Long Evans rats; details: 3H-GABA 0.05 μM; 10 mg tissue, 15 min with test compound at 37° C., 2 min uptake; read-out: IC50 (Calculated Median (50%) Inhibitory Concentration)
Protocol: The compounds of formula I are tested for pharmacological activity using three procedures. The first is an assay for the uptake of the neurotransmitter gamma-amino-butyric acid (GABA) into slices of rat hippocampal (brain) tissue incubated in vitro analogous to those described by Johnston, GAR, et al, in J. Neurochem. 26:1029-1032 (1976) entitled "Inhibition of the Uptake of GABA and Related Amino Acids in Rat Brain Slices by the Optical Isomers of Nipecotic Acid." Methods for this test are described in the following paragraph.
Male Long Evans rats (200-300 g) were sacrificed by decapitation, the brains quickly removed and the hippocampi were dissected out. Slices were cut (0.1×0.1 mm) on a McIlwain tissue chopper and dispersed in ice-chilled Krebs Ringer HEPES-buffered medium. Normal medium was composed of: NaCl (119 mM), KCl (4.75 mM), CaCl2 (1.25 mM), KH2 PO4 (1.20 mM), MgSO4 (1.18 mM), HEPES (22 mM), EDTA (0.03 mM), ascorbate (0.6 mM), and glucose (10 mM). The pH was adjusted to 7.2 with 3.0M Tris HCl. Following two washes in normal medium, 10 mg of tissue was incubated in a 3 ml volume of medium at 37° C. for 15 min in the presence or absence of test compound. ^3 H-GABA (80.8 Ci/mmole; 0.05 μM final concentration) was added to each flask and the uptake was allowed to proceed for a two min period. At the end of the uptake period, samples were rapidly filtered through Whatman GF/F filters and washed once with 5 ml ice-chilled 0.9% sodium chloride. The filters with tissue were placed into scintillation vials with 2 ml H2 O and allowed to sit for at least 60 min before scintillation fluid was added and samples counted. Blanks were treated in a manner similar to other samples, but were left on ice throughout the experiment. Results are expressed as percent control (no drug present) or IC50 value.
Table I. GABA uptake into prisms of rat hippocampus in vitro in the presence of different concentrations of various synthetic compounds of formula I.

[3] = tested on: threshold clonic seizures in mice caused by subcutaneous administration of pentylenetetrazol; assay: Attenuation of threshold clonic seizures in mice caused by subcutaneous pentylenetetrazol (model for absence type seizures); assay type: in vivo; details: Mus musculus, pentylenetetrazol 85 mg/kg s.c., read-out: Calculated Median Effective Dose (ED50)
Protocol: A third pharmacological test was performed as described in R. L. Krall et al, Epilepsia, 19:409 (1978), which is incorporated herein by reference. In this procedure, drugs were tested for attenuation of threshold clonic seizures in mice caused by subcutaneous administration of pentylenetetrazol (85 mg/kg) which is a generally accepted model for absence type seizures. Results from the third test for the compound when administered either intraperitoneally (IP) or orally (PO) are shown below in Table III.

[4] = read-out: Number of Animals Protected from Seizures (n/5)
[5] = 30 mg/kg, intraperitoneal, 30 minutes after administration, read-out: Number of Animals Protected from Seizures (n/5)
[6] = 2 h, PO, tested 120 min following dosing

SMILES	responders at 30 mg/kg [1, 4] [%]	responders at 100 mg/kg [1, 4] [%]	IC50 [2] [µM]	responders at 30 mg/kg [1, 5] [%]	responders at 100 mg/kg ([1]; 100 mg/kg, intraperitoneal, 30 minutes after administration, read-out: Number of Animals Protected from Seizures (n/5) (converted)) [%]	ED50 ([3]; 0.5 h, IP, tested 30 min following dosing) [mg/kg]	ED50 [3, 6] [mg/kg]
CCOC(=O)C1CCCN(CCOC(c2ccc(Cl)cc2)c2ccc(Cl)cc2)C1 (centres unmarked) [Example I, 3-Piperidinecarboxylic acid 1-[2-[bis-(4-chlorophenyl)methoxy]ethyl]-, ethyl ester]	0	60	12				
O=C(O)C1CCCN(CCOC(c2ccccc2)c2ccc(Cl)c(Cl)c2)C1 (centres unmarked) [Example IX, 3-Piperidinecarboxylic acid, 1-[2-[(3,4-dichlorophenyl)phenylmethoxy]ethyl]-, monohydrochloride]	60	80					
CCOC(=O)C1CCCN(CCOC(c2ccccc2)c2ccccc2)C1 (centres unmarked) [II, 3-Piperidinecarboxylic acid, 1-[2-(diphenylmethoxy)ethyl]-, ethyl ester]	20	80	~35				
CCOC(=O)C1CCCN(CCCOC(c2ccccc2)c2ccccc2)C1 (centres unmarked) [III, 3-Piperidinecarboxylic acid, 1-[3-(diphenylmethoxy)propyl]-, ethyl ester, monohydrochloride]				0			
CCOC(=O)C1CCCN(CCSC(c2ccccc2)c2ccccc2)C1 (centres unmarked) [IV, 3-Piperidinecarboxylic acid, 1-[2-[(diphenylmethyl)thio]ethyl]-, ethyl ester]			~60				
O=C(O)C1CCCN(CCCOC(c2ccccc2)c2ccccc2)C1 (centres unmarked) [VI, 3-Piperidinecarboxylic acid, 1-[3-diphenylmethoxy)propyl]-, monohydrochloride]			11	0	20		
Cl.O=C(O)C1CCCN(CCOC(c2ccccc2)c2ccccc2)C1 (centres unmarked) [VII, 3-Piperidinecarboxylic acid, 1-[2-(diphenylmethoxy)ethyl]-, monohydrochloride]	25	50	3			1.9	
O=C(O)C1CCCN(CCOC(c2ccc(Cl)cc2)c2ccc(Cl)cc2)C1 (centres unmarked) [VIII, 3-piperidinecarboxylic acid, 1-[2-[bis(4-chlorophenyl)methoxy]ethyl]monohydrochloride]	80	80	0.29				0.54
O=C(O)C1CCCN(CCOC(c2ccccc2)c2ccc(Cl)c(C(F)(F)F)c2)C1 (centres unmarked) [X, 3-Piperidinecarboxylic acid, 1-[2-[[4-chloro-3-(trifluoromethyl)phenyl]phenylmethoxy]ethyl]monohydrochloride]	20	100	0.86				
O=C(O)C1CCCN(CCOC2c3ccccc3C=Cc3ccccc32)C1 (centres unmarked) [XI, 3-Piperidinecarboxylic acid, 1-[2-[(5H-dibenzo[a,d]cyclohepten-5-yloxy)ethyl]]-]	20	40					
O=C(O)C1CCCN(CCOC(c2ccc(F)cc2)c2ccc(F)cc2)C1 (centres unmarked) [XIII, 3-Piperidinecarboxylic acid, 1-[2-[bis (4-fluorophenyl)methoxy]ethyl]-, monohydrochloride]	40	40					
O=C(O)C1=CCCN(CCOC(c2ccc(Cl)cc2)c2ccc(Cl)cc2)C1 [XIX, 3-Pyridinecarboxylic acid, 1-[2-[bis(4-chlorophenyl)methoxy]ethyl]-1,2,5,6-tetrahydro, hydrochloride]	80	100	0.1				
Cl.O=C(O)C1=CCCN(CCOC(c2ccc(C(F)(F)F)cc2)c2ccc(C(F)(F)F)cc2)C1 [XVII, 3-Pyridinecarboxylic acid, 1-[2-[bis[4-(trifluoromethyl)phenyl]methoxy]ethyl]-1,2,5,6-tetrahydro-, monohydrochloride]	80	80	0.45				0.5
O=C(O)C1CCCN(CCOC(c2ccc(C(F)(F)F)cc2)c2ccc(C(F)(F)F)cc2)C1 (centres unmarked) [XVIII, 3-Piperidinecarboxylic acid, 1-[2-[bis[4-(trifluoromethyl)phenyl]methoxy]ethyl]-, hydrochloride]	100	100	0.7				
